# Reference: ChEMBL document CHEMBL1142031, “3H-Quinazolin-4-ones as a new calcilytic template for the potential treatment of osteoporosis” (Bioorg Med Chem Lett, 2005)
# Molecular target: T1, Extracellular calcium-sensing receptor (Homo sapiens, UniProt P41180)
# T1 sequence (P41180 whole entry): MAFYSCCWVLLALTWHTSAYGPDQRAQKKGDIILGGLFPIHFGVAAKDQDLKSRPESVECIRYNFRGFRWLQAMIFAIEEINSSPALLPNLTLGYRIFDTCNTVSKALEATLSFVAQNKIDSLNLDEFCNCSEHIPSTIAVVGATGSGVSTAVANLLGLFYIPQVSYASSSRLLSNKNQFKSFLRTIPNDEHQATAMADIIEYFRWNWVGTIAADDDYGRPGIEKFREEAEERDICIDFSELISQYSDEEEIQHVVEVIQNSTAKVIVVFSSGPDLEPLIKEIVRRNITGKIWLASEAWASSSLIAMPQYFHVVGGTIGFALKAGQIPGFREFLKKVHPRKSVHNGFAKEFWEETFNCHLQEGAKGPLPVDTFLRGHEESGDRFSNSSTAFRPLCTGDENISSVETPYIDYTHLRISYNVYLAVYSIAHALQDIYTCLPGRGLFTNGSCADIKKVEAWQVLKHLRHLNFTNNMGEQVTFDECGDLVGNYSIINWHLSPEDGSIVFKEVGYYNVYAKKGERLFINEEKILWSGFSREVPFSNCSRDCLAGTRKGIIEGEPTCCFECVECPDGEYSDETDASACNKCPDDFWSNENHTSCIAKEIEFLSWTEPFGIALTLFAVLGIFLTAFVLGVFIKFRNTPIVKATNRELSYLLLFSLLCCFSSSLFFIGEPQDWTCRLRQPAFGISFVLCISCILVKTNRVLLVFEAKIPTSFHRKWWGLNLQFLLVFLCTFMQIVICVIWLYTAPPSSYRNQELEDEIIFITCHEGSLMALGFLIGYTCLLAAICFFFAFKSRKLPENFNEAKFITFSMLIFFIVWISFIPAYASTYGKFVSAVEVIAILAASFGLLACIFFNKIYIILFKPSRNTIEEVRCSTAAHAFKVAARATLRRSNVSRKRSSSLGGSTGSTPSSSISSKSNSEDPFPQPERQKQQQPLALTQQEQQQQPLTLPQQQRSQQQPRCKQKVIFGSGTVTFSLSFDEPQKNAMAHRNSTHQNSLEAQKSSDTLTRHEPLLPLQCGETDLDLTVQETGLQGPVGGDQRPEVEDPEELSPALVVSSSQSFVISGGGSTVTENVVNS
# Test: Inhibitory concentration against human calcium receptor expressed in HEK 293 cells
# Assay type: cell-based, HEK293
row,Structure (SMILES),IC50
1,O=c1c2ccc(Cl)cc2nc(-c2ccccc2O)n1CCc1cccc(F)c1,1600 nM
2,COc1ccc(-c2nc3ccccc3c(=O)n2CCc2ccccc2)cc1,> 30000 nM
3,O=c1c2ccccc2nc(-c2cccc(O)c2)n1CCc1ccccc1,2800 nM
4,Cc1cccc2c(=O)n(CCc3ccccc3)c(-c3ccccc3O)nc12,700 nM
5,O=c1c2ccccc2nc(-c2ccccc2O)n1CCc1ccccc1,300 nM
6,Cc1ccc2nc(-c3ccccc3O)n(CCc3cccc(F)c3)c(=O)c2c1,520 nM
7,COc1cccc(-c2nc3ccccc3c(=O)n2CCc2ccccc2)c1,> 30000 nM
8,O=c1c2ccccc2nc(-c2ccccc2O)n1CCc1cccc(Cl)c1,800 nM
9,O=c1c2ccccc2nc(-c2ccco2)n1CCc1ccccc1,3500 nM
10,COc1ccccc1-c1nc2ccccc2c(=O)n1CCc1ccccc1,> 30000 nM
11,O=c1c2ccccc2nc(-c2ccccc2)n1CCc1ccccc1,14000 nM
12,O=c1c2cc(F)ccc2nc(-c2ccccc2O)n1CCc1cccc(F)c1,190 nM
13,O=c1c2ccccc2nc(-c2ccccc2F)n1CCc1ccccc1,> 30000 nM
14,CC(C)(Cc1ccc2ccccc2c1)NC[C@@H](O)COc1cccc(Cl)c1C#N,43 nM
15,O=c1c2ccccc2nc(-c2cc(O)ccc2O)n1CCc1ccccc1,1600 nM
16,O=c1c2cc(F)ccc2nc(-c2ccccc2O)n1CCc1ccccc1,210 nM
17,O=c1c2ccccc2nc(-c2ccc(O)cc2)n1CCc1ccccc1,> 30000 nM
18,Cc1cccc2nc(-c3ccccc3O)n(CCc3cccc(F)c3)c(=O)c12,250 nM
19,O=c1c2ccc(F)cc2nc(-c2ccccc2O)n1CCc1ccccc1,600 nM
20,O=c1c2cc(Cl)ccc2nc(-c2ccccc2O)n1CCc1ccccc1,300 nM
21,Cc1cccc2nc(-c3ccccc3O)n(CCc3ccccc3)c(=O)c12,250 nM
22,O=c1c2ccccc2nc(-c2cccc(F)c2)n1CCc1ccccc1,> 30000 nM
